Target: T1, hGPR40 (Homo sapiens, UniProt O14842)
T1 construct: expressed in transfected cells
Test: Calcium flux assay to detect GPR40 activation
Format: cell-based
Details: CHO-K cells stably expressing hGPR40; Fluo-4 NW; read for 4 min at 5 s intervals
Experimental: Biological Activity Calium Flux Assay to Detect GPR40 Activation: CHO-K cells stably expressing hGPR40 were selected in a media containing Neomycin/G418. The cells were plated at a concentration of 20,000 cells per well in black 96-well clear bottom tissue culture treated plates. The cells were cultured for 24 h at 37° C. in a humidified 5% CO2 air environment to allow for protein expression. The next day, after removal of media from wells, Fluo-4 NW (Invitrogen) is added at 100 ul/well and the cells were incubated for 30 min at 37° C. and for a further 30 min at RT. All test compounds were diluted to appropriate concentrations in HEPES buffer. Compounds were added to the cells and the wells were read in the BioTEK synergy reader and readings were taken for 4 min with an interval of 5 s.

T1 sequence (O14842 whole entry): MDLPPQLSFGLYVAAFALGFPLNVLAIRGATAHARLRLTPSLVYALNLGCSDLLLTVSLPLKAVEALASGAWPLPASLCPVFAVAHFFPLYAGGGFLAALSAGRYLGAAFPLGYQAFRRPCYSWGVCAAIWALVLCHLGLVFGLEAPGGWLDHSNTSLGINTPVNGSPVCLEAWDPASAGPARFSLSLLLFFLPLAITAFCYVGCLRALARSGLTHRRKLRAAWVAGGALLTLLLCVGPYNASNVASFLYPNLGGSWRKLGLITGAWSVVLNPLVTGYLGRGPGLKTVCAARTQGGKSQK

EC50 [nM] | Structure (SMILES)
10 to 100 | CO/N=C(\COc1ccc(COc2ccc(C(C#N)CC(=O)O)cc2)cc1)c1ccc2c(c1)CCC2 (stereo not shown) [Compound 103, 3-Cyano-3-{4-[(4-{[(2Z)-2-(2,3-dihydro-1H-inden-5-yl)-2-(methoxyimino)ethyl]oxy}benzyl)oxy]phenyl}propanoic acid]
< 10 | CC#CC(CC(=O)O)c1ccc(OCc2ccc(OC/C(=N\OC)c3ccccc3)cc2)cc1 (stereo not shown) [Compound 85, 3-{4-[(4-{[(2Z)-2-(Methoxyimino)-2-phenylethyl]oxy}benzyl)oxy]phenyl}hex-4-ynoic acid]
< 10 | CO/N=C(\COc1ccc(COc2ccc(C(C#N)CC(=O)O)cc2)cc1)c1ccccc1 (stereo not shown) [Compound 31, Potassium 3-cyano-3-{4-[(4-{[(2Z)-2-(methoxyimino)-2-phenylethyl]oxy}benzyl)oxy]phenyl}propanoate]
< 10 | CO/N=C(/COc1ccc(COc2ccc(C(C#N)CC(=O)O)cc2)cc1)c1ccc(OC)cc1 (racemic) [Compound 25, 3-Cyano-3-{4-[(4-{[(2E,2Z)-2-(methoxyimino)-2-(4-methoxyphenyl)ethyl]oxy}benzyl)oxy]phenyl}propanoic acid]
< 10 | CO/N=C(\COc1ccc(COc2ccc(C3CC3C(=O)O)cc2)cc1)c1ccc(C#N)cc1 (stereo not shown) [Compound 51, Sodium 2-{4-[(4-{[(2Z)-2-(4-cyanophenyl)-2-(methoxyimino)ethyl]oxy}benzyl)oxy]phenyl}cyclopropanecarboxylate]
> 100 | CO/N=C(\COc1ccc(COc2ccc(/C(CC(=O)O)=N\OC)cc2)cc1)c1ccccc1 [Compound 68, (3E,3Z)-3-(Methoxyimino)-3-{4-[(4-{[(2Z)-2-(methoxyimino)-2-phenylethyl]oxy}benzyl)oxy]phenyl}propanoic acid]
< 10 | CO/N=C(\COc1ccc(COc2ccc(CCC(=O)O)c(F)c2)cc1)c1ccc(C#N)cc1 [Compound 39]
> 100 | CO/N=C(\COc1ccc(COc2ccc(CCC(=O)O)c(F)c2)cc1)c1ccccc1 [Compound 71, Sodium 3-{2-fluoro-4-[(4-{[(2Z)-2-(methoxyimino)-2-phenylethyl]oxy}benzyl)oxy]phenyl}propanoate]
< 10 | CO/N=C(\COc1ccc(COc2ccc(C(C#N)CC(=O)O)c(F)c2)cc1)c1ccccc1 (stereo not shown) [Compound 77, 3-Cyano-3-{2-fluoro-4-[(4-{[(2Z)-2-(methoxyimino)-2-phenylethyl]oxy}benzyl)oxy]phenyl}propanoic acid]
10 to 100 | CO/N=C(\COc1ccc(COc2ccc(C3CC3C(=O)O)cc2)cc1)c1ccc(C#N)cc1 (stereo not shown) [Compound 45, 2-{4-[(4-{[(2Z)-2-(4-Cyanophenyl)-2-(methoxyimino)ethyl]oxy}benzyl)oxy]phenyl}cyclopropanecarboxylic acid]
10 to 100 | CO/N=C(\COc1ccc(COc2ccc(C(C#N)CC(=O)O)c(C)c2)cc1)c1ccccc1 (stereo not shown) [Compound 62, 3-Cyano-3-{4-[(4-{[(2Z)-2-(methoxyimino)-2-phenylethyl]oxy}benzyl)oxy]-2-methylphenyl}propanoic acid]
10 to 100 | CO/N=C(/COc1ccc(COc2ccc(C(C#N)CC(=O)O)cc2)cc1)c1ccccc1 (single isomer, unassigned) [Compound 99, 3-Cyano-3-{4-[(4-{[(2E)-2-(methoxyimino)-2-phenylethyl]oxy}benzyl)oxy]phenyl}propanoic acid]
10 to 100 | CO/N=C(\COc1ccc(CNc2ccc([C@@H]3C[C@H]3C(=O)O)cc2)cc1)c1ccccc1C [Compound 15, (1R,2R)-2-{4-[(4-{[(2Z)-2-(Methoxyimino)-2-(2-methylphenyl)ethyl]oxy}benzyl)amino]phenyl}cyclopropanecarboxylic acid]
10 to 100 | CON=C(COc1ccc(CNc2ccc([C@@H]3C[C@H]3C(=O)O)cc2)cc1)c1ccccc1 (mixture of isomers) [Compound 14, (1R,2R)-2-{4-[(4-{[(2E,2Z)-2-(Methoxyimino)-2-phenylethyl]oxy}benzyl)amino]phenyl}cyclopropanecarboxylic acid]
10 to 100 | CO/N=C(\COc1ccc(COc2ccc(C(C#N)CC(=O)O)c(OC)c2)cc1)c1ccccc1 (stereo not shown) [Compound 83, 3-Cyano-3-{2-methoxy-4-[(4-{[(2Z)-2-(methoxyimino)-2-phenylethyl]oxy}benzyl)oxy]phenyl}propanoic acid]
< 10 | CO/N=C(\COc1ccc(COc2ccc(CCC(=O)O)c(F)c2)cc1)c1ccc(OC)cc1 [Compound 40, 3-{2-Fluoro-4-[(4-{[(2Z)-2-(methoxyimino)-2-(4-methoxyphenyl)ethyl]oxy}benzyl)oxy]phenyl}propanoic acid]
< 10 | CO/N=C(\COc1ccc(COc2ccc(C(C#N)CC(=O)O)cc2)cc1)c1ccc(OC)cc1 (stereo not shown) [Compound 66, 3-Cyano-3-{4-[(4-{[(2Z)-2-(methoxyimino)-2-(4-methoxyphenyl)ethyl]oxy}benzyl)oxy]phenyl}propanoic acid]
> 100 | CO/N=C(\COc1ccc(COc2ccc(CCC(=O)O)c(CC#N)c2)cc1)c1ccccc1 [Compound 44, 3-{2-(Cyanomethyl)-4-[(4-{[(2Z)-2-(methoxyimino)-2-phenylethyl]oxy}benzyl)oxy]phenyl}propanoic acid]

The next lines start with the molecule.

Structure (SMILES) | EC50 [nM]
CO/N=C(\c1ccccc1)c1cccc(COc2ccc(CC(=O)O)cc2)c1 [Compound 19, [4-({3-[(E,Z)-(Methoxyimino)(phenyl)methyl]benzyl}oxy)phenyl]acetic acid] | > 100
CN(C)CCO/N=C(/c1ccccc1)c1cccc(COc2ccc(CCC(=O)O)cc2)c1 [Compound 11, 3-[4-({3-[(E,Z)-{[2-(Dimethylamino)ethoxy]imino}(phenyl)methyl]benzyl}oxy)phenyl]propanoic acid] | > 100
CO/N=C(\COc1ccc(COc2ccc(C(C#N)CC(=O)O)cc2)cc1)C1CC1 (stereo not shown) [Compound 105, 3-Cyano-3-{4-[(4-{[(2Z)-2-cyclopropyl-2-(methoxyimino)ethyl]oxy}benzyl)oxy]phenyl}propanoic acid] | > 100
CO/N=C(\COc1ccc(COc2ccc(CCC(=O)O)c(OC(C)C)c2)cc1)c1ccccc1 [Compound 60, 3-{4-[(4-{[(2Z)-2-(Methoxyimino)-2-phenylethyl]oxy}benzyl)oxy]-2-(propan-2-yloxy)phenyl}propanoic acid] | > 100
CO/N=C(\COc1ccc(COc2ccc(CCC(=O)O)c(OCC3CC3)c2)cc1)c1ccccc1 [Compound 58, 3-{2-(Cyclopropylmethoxy)-4-[(4-{[(2Z)-2-(methoxyimino)-2-phenylethyl]oxy}benzyl)oxy]phenyl}propanoic acid] | > 100
CON=C(COc1ccc(COc2ccc(CCC(=O)O)c(OCC(=O)O)c2)cc1)c1ccccc1 (mixture of isomers) [Compound 89, 3-{2-(Carboxymethoxy)-4-[(4-{[(2E,2Z)-2-(methoxyimino)-2-phenylethyl]oxy}benzyl)oxy]phenyl}propanoic acid] | > 100
O=C(O)CCc1ccc(NCc2cccc(/C(=N\OCC(F)(F)F)c3ccccc3)c2)cc1 [Compound 9, 3-{4-[(3-{(E,Z)-Phenyl[(2,2,2-trifluoroethoxy)imino]methyl}benzyl)amino]phenyl}propanoic acid] | > 100
CO/N=C(\COc1ccc(COc2ccc(C(C#N)CC(=O)O)cc2)cc1OC)c1ccccc1 (stereo not shown) [Compound 26, 3-Cyano-3-{4-[(3-methoxy-4-{[(2Z)-2-(methoxyimino)-2-phenylethyl]oxy}benzyl)oxy]phenyl}propanoic acid] | 10 to 100
C=CCO/N=C(\COc1ccc(COc2ccc(CCC(=O)O)cc2)cc1)c1ccccc1 [Compound 110, 3-(4-{[4-({(2E,2Z)-2-Phenyl-2-[(prop-2-en-1-yloxy)imino]ethyl}oxy)benzyl]oxy}phenyl)propanoic acid] | < 10
CO/N=C(/c1ccccc1)c1cccc(COc2ccc(CCC(=O)O)cc2)c1 [Compound 1, 3-[4-({3-[(E,Z)-(methoxyimino)(phenyl)methyl]benzyl}oxy)phenyl]propanoic acid] | 10 to 100
CO/N=C(\COc1ccc(COc2cc(F)c(CCC(=O)O)cc2F)cc1)c1ccccc1 [Compound 86, 3-{2,5-Difluoro-4-[(4-{[(22)-2-(methoxyimino)-2-phenylethyl]oxy}benzyl)oxy]phenyl}propanoic acid] | > 100
CON=C(COCC1CCC(COc2ccc(CCC(=O)O)cc2)CC1)c1ccccc1 (stereo not shown) [Compound 113, 3-(4-{[4-({[(2E,2Z)-2-(Methoxyimino)-2-phenylethyl]oxy}methyl)cyclohexyl]methoxy}phenyl)propanoicacid] | > 100
N#CC(CC(=O)O)c1ccc(OCc2ccc(OC/C(=N\Oc3ccccc3)c3ccccc3)cc2)cc1 (stereo not shown) [Compound 107, 3-Cyano-3-{4-[(4-{[(2E,2Z)-2-(phenoxyimino)-2-phenylethyl]oxy}benzyl)oxy]phenyl}propanoic acid] | 10 to 100
N#CC(CC(=O)O)c1ccc(OCc2ccc(OC/C(=N\O)c3ccccc3)cc2)cc1 (stereo not shown) [Compound 78, 3-Cyano-3-{4-[(4-{[(2E,2Z)-2-(hydroxyimino)-2-phenylethyl]oxy}benzyl)oxy]phenyl}propanoic acid] | 10 to 100
CO/N=C(\COc1cccc(COc2ccc(CC(C#N)C(=O)O)cc2)c1)c1ccccc1 (stereo not shown) [Compound 8, 2-Cyano-3-{4-[(3-{[(2E,2Z)-2-(methoxyimino)-2-phenylethyl]oxy}benzyl)oxy]phenyl}propanoic acid] | > 100
CO/N=C(\COc1ccc(COc2ccc(CCC(=O)O)cc2)cn1)c1ccccc1 [Compound 20, 3-{4-[(6-{[(2Z)-2-(Methoxyimino)-2-phenylethyl]oxy}pyridin-3-yl)methoxy]phenyl}propanoic acid] | > 100

Reference: patent US9278915B2, “Agonists of GPR40” (CONNEXIOS LIFE SCIENCES PVT LTD, priority 2010, dated 2016)
